Each block holds one compound with its values, some of them ahead of it.
Legend:
[1] = target: T1, Transcriptional activator protein TraR (Agrobacterium tumefaciens, UniProt P33905); assay: Antagonist activity at Agrobacterium tumefaciens TraR receptor
T1 sequence (P33905 whole entry): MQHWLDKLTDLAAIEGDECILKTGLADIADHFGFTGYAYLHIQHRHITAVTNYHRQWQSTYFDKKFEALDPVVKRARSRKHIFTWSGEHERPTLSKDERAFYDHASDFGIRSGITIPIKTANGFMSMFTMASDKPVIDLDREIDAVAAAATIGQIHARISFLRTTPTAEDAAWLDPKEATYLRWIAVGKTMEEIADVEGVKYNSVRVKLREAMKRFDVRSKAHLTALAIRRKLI

[2] = Inhibition of quorum sensing system in Pseudomonas aeruginosa PAO1
[3] = target: T2, Transcriptional regulator MvfR (Pseudomonas aeruginosa PA14, UniProt A0A072ZLE6); assay: Inhibition of PqsR-mediated quorum sensing system in Pseudomonas aeruginosa PAO1 assessed as inhibition of pyocyanin production incubated for 24 hrs by absorbance based assay
T2 sequence (A0A072ZLE6 whole entry): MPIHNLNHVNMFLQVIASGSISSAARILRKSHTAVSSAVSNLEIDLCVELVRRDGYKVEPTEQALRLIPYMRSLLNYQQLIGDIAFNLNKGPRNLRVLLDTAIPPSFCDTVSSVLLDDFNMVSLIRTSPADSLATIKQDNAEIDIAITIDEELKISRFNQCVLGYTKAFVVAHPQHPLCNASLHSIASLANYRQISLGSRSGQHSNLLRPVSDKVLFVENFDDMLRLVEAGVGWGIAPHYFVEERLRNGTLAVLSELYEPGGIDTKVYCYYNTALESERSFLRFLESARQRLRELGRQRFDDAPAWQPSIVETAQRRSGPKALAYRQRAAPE

[4] = system: Pseudomonas aeruginosa; assay: Antibiofilm activity against Pseudomonas aeruginosa PAO1 assessed as inhibition of biofilm formation at 50 uM incubated for 24 hrs by crystal violet staining based absorbance assay relative to control; type: functional; parameters: scale not given: the % may be the effect or the level left
[5] = target: T2, Transcriptional regulator MvfR; assay: Inhibition of PqsR-mediated quorum sensing system in Pseudomonas aeruginosa PAO1 assessed as inhibition of pyocyanin production at 20 uM incubated for 24 hrs by absorbance based assay
[6] = Inhibition of quorum sensing system in Vibrio fischeri; parameters: species or system Aliivibrio fischeri
[7] = target: T2, Transcriptional regulator MvfR; assay: Antagonist activity at PqsR in wild-type Pseudomonas aeruginosa PAO1-L assessed as reduction in HHQ level at 0.1 uM by LCMS/MS analysis
[8] = Inhibition of quorum sensing system in Pseudomonas aeruginosa PAO1 transfected with lasB-GFP by measuring reduction in fluorescence intensity measured for 16 hrs by fluorescence assay
[9] = target: T3, Transcriptional activator protein LasR (Pseudomonas aeruginosa (strain ATCC 15692 / PAO1 / 1C / PRS 101 / LMG12228), UniProt P25084); assay: Inhibition of LasR-mediated quorum sensing system in Pseudomonas aeruginosa PAO1 assessed as inhibition of pyocyanin production incubated for 24 hrs by absorbance based assay
T3 sequence (P25084 whole entry): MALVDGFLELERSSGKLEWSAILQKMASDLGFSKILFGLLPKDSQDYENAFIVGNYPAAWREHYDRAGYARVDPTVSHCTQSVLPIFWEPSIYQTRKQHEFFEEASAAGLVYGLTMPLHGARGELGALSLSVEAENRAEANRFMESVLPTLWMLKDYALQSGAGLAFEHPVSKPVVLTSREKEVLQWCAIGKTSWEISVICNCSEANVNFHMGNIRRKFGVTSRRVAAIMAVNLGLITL

[10] = Inhibition of quorum sensing system in Chromobacterium violaceum CV026 assessed as reduction in violacein production
[11] = target: T4, Transcriptional regulator MvfR (Pseudomonas aeruginosa PA14) (UniProt A0A072ZLE6); assay: Inhibition of PqsR-mediated quorum sensing system in Pseudomonas aeruginosa PAO1 assessed as inhibition of pyocyanin production at 100 uM relative to control
T4 sequence (whole entry): T2 sequence (A0A072ZLE6 whole entry)

[12] = target: T2, Transcriptional regulator MvfR; assay: Antagonist activity at PqsR in Pseudomonas aeruginosa IPCD48 clinical isolate assessed as reduction in PQS level at 0.1 uM by LCMS/MS analysis
[13] = target: T2, Transcriptional regulator MvfR; assay: Antagonist activity at PqsR in wild-type Pseudomonas aeruginosa PAO1 assessed as reduction in AQ level
[14] = target: T3, Transcriptional activator protein LasR; assay: Inhibition of LasR-mediated quorum sensing system in Pseudomonas aeruginosa PAO1 assessed as inhibition of elastase production

IC50 [1]: 0.8 µM
SMILES: CCCCCCS(=O)(=O)N[C@H]1CCOC1=O

IC50 [2]: 1.1 µM
SMILES: CCCCCCCCCCS(=O)(=O)N[C@H]1CCOC1=O

SMILES: CCCCCCNC(=O)NC1CCOC1=O (stereo not drawn)
IC50 [3]: 1 µM

SMILES: O=C(Nc1cc(=O)c2ccccc2o1)c1ccc(F)cc1
Activity [4]: 65.3%

SMILES: Fc1ccc(-n2cc(CNc3ccnc(C(F)(F)F)c3)nn2)cc1
IC50 [5]: 0.196 µM

SMILES: O=C1OCCC1NS(=O)(=O)CCc1ccccc1 (stereo not drawn)
IC50 [6]: 3 µM

IC50 [2]: 1 µM
SMILES: CCCCCCCCCS(=O)(=O)N[C@H]1CCOC1=O

SMILES: CCCCSC(=O)N[C@H]1CCOC1=O
IC50 [7]: 45 µM

IC50 [8]: 6.5 µM
SMILES: O=C(NCc1cccc(I)c1)c1ccccc1[N+](=O)[O-]

SMILES: CCCCCCc1cncn1C1CCOC1=O (stereo not drawn)
IC50 [5]: 110 µM

SMILES: CCCCCCc1cncn1CC(=O)OCC
IC50 [5]: 87 µM

SMILES: CCCCS(=O)(=O)N[C@H]1CCOC1=O
IC50 [1]: 0.6 µM

IC50 [9]: 88 µM
SMILES: C[C@@H]1O[C@H](CNC(=O)/C=C/c2ccccc2)[C@@H](O)[C@H](O)[C@@H]1O

SMILES: O=C(Nc1ccc([N+](=O)[O-])cc1)c1cc(=O)c2ccccc2o1
Activity [4]: 58.7%

SMILES: O=C(N[C@H]1CCOC1=O)OCc1ccc([N+](=O)[O-])cc1
IC50 [7]: 22 µM

IC50 [10]: 1.6 µM
SMILES: O=C(Nc1ccc(S(=O)(=O)N[C@H]2CCOC2=O)cc1)c1ccccc1F

SMILES: O=C(Nc1ccc(F)cc1)c1cc(=O)c2ccccc2o1
Activity [4]: 73.3%

inhibition [11]: 74%
SMILES: COc1ccc(NC(=O)Cn2cc(CSc3nc4ccccc4c(=O)n3C3CC3)nn2)cc1

SMILES: CCCCCNC(=O)NC1CCOC1=O (stereo not drawn)
IC50 [3]: 1.1 µM

SMILES: O=C(CN1CCOCC1)Oc1cccc([N+](=O)[O-])c1
IC50 [12]: 22 µM

SMILES: O=C(CN1CCOCC1)Nc1cccc([N+](=O)[O-])c1
IC50 [12]: > 483 µM

SMILES: O=C(Oc1c(Br)cc(Br)cc1CNC(=O)c1ccccc1[N+](=O)[O-])c1ccccc1Cl
IC50 [13]: 0.038 µM

SMILES: O=C(Nc1cc(=O)c2ccccc2o1)c1ccc([N+](=O)[O-])cc1[N+](=O)[O-]
Activity [4]: 90%

SMILES: FC(F)(F)c1cc(NCc2cn(-c3ccc(Oc4ccccc4)cc3)nn2)ccn1
IC50 [5]: 0.011 µM

SMILES: CCCCCS(=O)(=O)NC1CCOC1=O (stereo not drawn)
IC50 [6]: 2 µM

IC50 [9]: 3 µM
SMILES: Cc1cc(C)c(S(=O)(=O)NC[C@H]2O[C@@H](C)[C@@H](O)[C@@H](O)[C@@H]2O)c(C)c1

IC50 [14]: 60 µM
SMILES: O=[N+]([O-])c1ccccc1S(=O)(=O)Nc1ccc(S(=O)(=O)Nc2nccs2)cc1

SMILES: Nc1cc(NCC(=O)Nc2ccc(F)cc2)cc(C(F)(F)F)n1
IC50 [5]: 0.48 µM

IC50 [8]: 4.8 µM
SMILES: O=C(NCCc1ccc(Br)cc1)c1ccccc1[N+](=O)[O-]

SMILES: CCOC(=O)CC(=O)c1ccccc1
IC50 [12]: 76 µM

SMILES: CCCCCCCCCCCCn1nnc(CC(=O)O)n1
IC50 [13]: 0.03 µM

inhibition [11]: 62%
SMILES: CCCCNC(=O)CSc1nc2ccccc2c(=O)n1C1CC1

SMILES: CCCCCCOC(=O)N[C@H]1CCOC1=O
IC50 [7]: 73 µM

IC50 [9]: 4 µM
SMILES: CO[C@H]1O[C@H](CNS(=O)(=O)c2c(C)cc(C)cc2C)[C@@H](O)[C@H](O)[C@@H]1O

IC50 [8]: 6.6 µM
SMILES: O=C(NCc1cc(F)cc(F)c1)c1ccccc1[N+](=O)[O-]

IC50 [10]: 6.2 µM
SMILES: O=C(Nc1ccc(S(=O)(=O)N[C@H]2CCOC2=O)cc1)c1sccc1Cl

SMILES: CCOC(=O)CC(=O)c1ccc(F)cc1
IC50 [12]: 23 µM

SMILES: O=C(N[C@H]1CCOC1=O)SCc1ccc([N+](=O)[O-])cc1
IC50 [7]: 23 µM

— ChEMBL document CHEMBL5584233, “Amide bioisosteric replacement in the design and synthesis of quorum sensing modulators” (Eur J Med Chem, 2024)
